Data on four molecules can be found in publication PMC10861852, “Loss of activation by GABA in vertebrate delta ionotropic glutamate receptors” (Proceedings of the National Academy of Sciences of the …, 2024).

Changes are numbered by the printed parent chain. Like-named read-outs stand apart in the source and are kept apart here.

The subject of one test is S713A AcaGluD. The test can be described thus: Two-electrode voltage clamp, GABA-gated current before/after concanavalin A treatment. The class given is cell-based, Acanthaster planci. The conditions noted are these: concanavalin A 10 μM, 30 mM GABA. From the text: (§1) Fig. 5. RatGluD2-like substitutions impair the ligand-gated activity of AcaGluD receptors. (A) Ligand-gated currents in oocytes expressing indicated mutant AcaGluD receptors or uninjected oocytes. (B) Maximum current amplitude (“Imax”, Upper) and relative ligand-gated current amplitude (“I/Imax”, Lower) and at wild-type (WT) and mutant AcaGluD receptors (mean ± SEM, n = 3 to 5). (C) Immunolabeling c-Myc tag in AcaGluD C-terminal. Upper, example micropgraphs. Lower, […] fluorescence units (RFU) plotted against relative radial distance, peaking at the oocyte surface. White scale bars, 100 μm. (D) AlphaFold model of two adjacent AcaGluD LBDs (rear LBD faded). Selected amino acid residues colored and shown as sticks. Magenta, drastic loss of function; cyan, moderate loss of function. […] (E) Upper, example, and Lower, summarized current responses to 30 mM GABA (“IGABA”) in WT or mutant AcaGluD-expressing oocytes before or after treatment with concanavalin A (“ConA”, 10 μM).
(Two-electrode voltage clamp is typically applied to oocytes expressing channels or transporters.)

Another test relates to R721K AcaGluD. Described as above. It counts as cell-based, Acanthaster planci. The conditions noted are these: concanavalin A 10 μM, 30 mM GABA.
Description: as §1

The next test deals with F640Y AcaGluD. The test is described as above. The class given is cell-based, Acanthaster planci. The conditions noted are these: concanavalin A 10 μM, 30 mM GABA.
Description: as §1

A further test deals with D825P AcaGluD. The test is described as above. It counts as cell-based, Acanthaster planci. The conditions noted are these: concanavalin A 10 μM, 30 mM GABA.
Description: as §1

The target of the next test is RatGluA2 AMPA receptors (Rattus norvegicus, UniProt P19491). The test can be described thus: Two-electrode voltage clamp, glutamate-gated current in oocytes expressing RatGluA2 and human TARPγ2. The class given is cell-based. The conditions noted are these: n = 5. The source says: (dots) and resulting means (columns).
The next test has as its target T1, RatGluD2^Lc^-9x (Rattus norvegicus, UniProt Q63226, A654T/A686S/D753Q/K694R/N720P/N763K/P806D/Q786M/R787V/Y613F).
T1 construct: expressed in transfected cells; host or cells: Xenopus laevis oocytes injected with mRNA
In words: Two-electrode voltage clamp, responses to ligands in mutant-expressing oocytes. The class given is cell-based. The conditions noted are these: pentamidine 100 μM. From the text:
If the 10 mutations discussed above drove the loss of function in vertebrate delta iGluRs, one might expect that the latter could be “reawakened” via active invertebrate delta iGluR-like mutations here. We therefore engineered mutant RatGluD2 iGluRs to contain at these positions the equivalent residues from starfish delta iGluRs. These mutants were RatGluD2^5x, containing Y613F, A686S, K694R, N720P, and P806D substitutions (pink in Fig. 6A), and RatGluD2^9x, additionally containing N763K, D753Q, Q786M, and R787V (cyan in Fig. 6A).
Fig. 6. AcaGluD-like mutations alter RatGluD2 receptor function. (A) D-serine bound RatGluD2 from X-ray structure PDB:2v3u ([13]). Selected amino acid residues are indicated, colored, shown as sticks, and labeled 5×, 9×, 10×, and/or Lc according to the multiple mutants they were incorporated into. 10× mutant included 10×, 9×, and 5× positions. 9× included 9× and 5×. 5× included only 5×. […] (B–E) Example current responses to different neurotransmitter ligands (30 mM) and to pore blocker pentamidine (Pent, 100 μM) in oocytes expressing indicated RatGluD2 mutants. The dashed line indicates zero current baseline. (F) Individual (dots) and mean (columns) responses to ligands in oocytes expressing indicated RatGluD2 mutants (n = 4 to 5).

The next test addresses T2, AcaGluD (Acanthaster planci, UniProt A0A8B7XXR5).
T2 sequence (A0A8B7XXR5 24-958): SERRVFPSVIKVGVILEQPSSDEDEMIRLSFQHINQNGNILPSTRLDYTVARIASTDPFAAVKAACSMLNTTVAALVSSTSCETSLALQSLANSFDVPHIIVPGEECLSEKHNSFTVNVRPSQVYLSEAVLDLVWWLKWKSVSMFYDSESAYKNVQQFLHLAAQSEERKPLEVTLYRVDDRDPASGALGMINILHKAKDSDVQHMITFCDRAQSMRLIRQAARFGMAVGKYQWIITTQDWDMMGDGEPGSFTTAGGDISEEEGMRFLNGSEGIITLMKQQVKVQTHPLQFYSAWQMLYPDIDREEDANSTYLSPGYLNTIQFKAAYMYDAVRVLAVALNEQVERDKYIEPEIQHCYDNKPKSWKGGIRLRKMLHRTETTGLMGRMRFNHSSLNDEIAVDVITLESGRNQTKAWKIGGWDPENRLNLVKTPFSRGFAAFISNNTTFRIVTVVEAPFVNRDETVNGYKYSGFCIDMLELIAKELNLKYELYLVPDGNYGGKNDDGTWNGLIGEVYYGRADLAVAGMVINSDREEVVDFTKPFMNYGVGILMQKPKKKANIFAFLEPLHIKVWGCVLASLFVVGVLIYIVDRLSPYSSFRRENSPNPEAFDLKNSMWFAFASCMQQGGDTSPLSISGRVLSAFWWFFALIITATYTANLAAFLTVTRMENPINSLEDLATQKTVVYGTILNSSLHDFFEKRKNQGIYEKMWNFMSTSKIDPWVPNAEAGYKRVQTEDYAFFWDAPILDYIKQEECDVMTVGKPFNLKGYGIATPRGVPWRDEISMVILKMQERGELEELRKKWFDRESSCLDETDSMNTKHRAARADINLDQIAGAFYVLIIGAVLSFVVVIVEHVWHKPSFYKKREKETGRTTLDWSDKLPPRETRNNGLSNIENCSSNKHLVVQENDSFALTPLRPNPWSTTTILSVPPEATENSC
The test can be described thus: Two-electrode voltage clamp, ligand-gated currents in oocytes. The class given is cell-based. The conditions noted are these: for inhibition of GABA-gated current: coapplied with ~EC30 GABA concentration.

The target of another test is T3, RatGluD2^Lc (Rattus norvegicus, UniProt Q63226, A654T).
T3 sequence (Q63226 24-1007 A654T): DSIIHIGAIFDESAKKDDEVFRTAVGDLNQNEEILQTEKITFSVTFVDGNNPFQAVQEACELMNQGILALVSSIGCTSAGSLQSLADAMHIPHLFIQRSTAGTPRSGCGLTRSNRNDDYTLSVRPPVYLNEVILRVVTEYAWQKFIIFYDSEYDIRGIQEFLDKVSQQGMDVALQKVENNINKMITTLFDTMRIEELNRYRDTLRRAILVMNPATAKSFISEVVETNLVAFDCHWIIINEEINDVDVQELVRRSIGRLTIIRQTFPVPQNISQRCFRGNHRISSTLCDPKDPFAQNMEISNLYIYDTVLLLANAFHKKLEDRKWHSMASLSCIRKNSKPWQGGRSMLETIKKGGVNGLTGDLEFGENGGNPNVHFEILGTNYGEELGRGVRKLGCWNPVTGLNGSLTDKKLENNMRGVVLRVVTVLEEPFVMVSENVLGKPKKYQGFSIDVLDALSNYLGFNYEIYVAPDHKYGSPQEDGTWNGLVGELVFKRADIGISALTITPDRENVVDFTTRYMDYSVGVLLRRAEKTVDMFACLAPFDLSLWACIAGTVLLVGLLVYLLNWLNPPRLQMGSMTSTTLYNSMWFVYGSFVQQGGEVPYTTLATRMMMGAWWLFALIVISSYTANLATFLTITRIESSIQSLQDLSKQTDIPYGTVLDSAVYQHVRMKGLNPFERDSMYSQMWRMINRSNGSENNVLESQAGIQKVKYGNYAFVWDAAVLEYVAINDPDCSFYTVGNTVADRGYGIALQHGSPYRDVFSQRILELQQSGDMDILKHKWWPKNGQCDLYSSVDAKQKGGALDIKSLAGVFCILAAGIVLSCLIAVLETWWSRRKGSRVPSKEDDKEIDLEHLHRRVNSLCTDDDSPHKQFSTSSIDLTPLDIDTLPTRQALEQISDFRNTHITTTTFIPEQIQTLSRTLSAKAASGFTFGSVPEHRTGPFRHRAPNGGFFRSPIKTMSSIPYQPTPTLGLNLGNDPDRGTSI
The test can be described thus: Two-electrode voltage clamp, inhibition of constitutive current in oocytes. The conditions noted are these: each n = 4.

For a further test, the target named is T4, WT RatGluD2 (Rattus norvegicus, UniProt Q63226).
T4 construct: expressed in transfected cells; host or cells: Xenopus laevis oocytes injected with mRNA
T4 sequence (Q63226 24-1007): T3 sequence (Q63226 24-1007 A654T) with T631A
In words: Two-electrode voltage clamp in oocytes. It counts as cell-based. The conditions noted are these: n = 4.

RatGluA2 AMPA receptors, sequence (P19491 22-883 isoform P19491-2 limits assumed): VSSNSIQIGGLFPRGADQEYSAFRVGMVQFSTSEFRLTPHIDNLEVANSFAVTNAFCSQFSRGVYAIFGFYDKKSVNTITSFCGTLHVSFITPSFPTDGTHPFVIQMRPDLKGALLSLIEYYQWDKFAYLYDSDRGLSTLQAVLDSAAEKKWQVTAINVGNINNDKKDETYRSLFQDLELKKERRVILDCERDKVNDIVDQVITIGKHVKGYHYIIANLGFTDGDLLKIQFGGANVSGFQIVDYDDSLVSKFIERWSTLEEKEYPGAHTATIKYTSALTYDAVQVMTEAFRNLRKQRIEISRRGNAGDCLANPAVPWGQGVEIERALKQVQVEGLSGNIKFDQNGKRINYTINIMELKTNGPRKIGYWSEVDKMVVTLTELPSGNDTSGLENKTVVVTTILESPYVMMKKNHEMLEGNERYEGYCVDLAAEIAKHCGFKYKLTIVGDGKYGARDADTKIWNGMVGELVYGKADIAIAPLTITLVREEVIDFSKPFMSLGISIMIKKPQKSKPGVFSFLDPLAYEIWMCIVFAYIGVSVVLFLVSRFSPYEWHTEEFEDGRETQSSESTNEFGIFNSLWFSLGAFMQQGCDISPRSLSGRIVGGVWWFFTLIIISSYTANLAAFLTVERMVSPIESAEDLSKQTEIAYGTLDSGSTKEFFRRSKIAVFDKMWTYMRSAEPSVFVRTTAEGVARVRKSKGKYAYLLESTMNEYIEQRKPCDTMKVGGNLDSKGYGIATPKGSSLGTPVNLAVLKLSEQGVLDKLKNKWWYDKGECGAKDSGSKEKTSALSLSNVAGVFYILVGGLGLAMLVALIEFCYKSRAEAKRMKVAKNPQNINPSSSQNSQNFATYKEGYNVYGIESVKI
RatGluA2 AMPA receptors, sequence (Q9Y698 whole entry partner): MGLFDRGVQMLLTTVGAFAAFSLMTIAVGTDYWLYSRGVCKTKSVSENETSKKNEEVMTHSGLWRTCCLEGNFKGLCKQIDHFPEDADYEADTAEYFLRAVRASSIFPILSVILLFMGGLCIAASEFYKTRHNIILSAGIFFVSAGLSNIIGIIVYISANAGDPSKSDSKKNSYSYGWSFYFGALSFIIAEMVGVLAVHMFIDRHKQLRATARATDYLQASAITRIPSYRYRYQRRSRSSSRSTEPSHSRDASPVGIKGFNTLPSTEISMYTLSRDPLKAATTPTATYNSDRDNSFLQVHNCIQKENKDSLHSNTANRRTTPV
T1 sequence (Q63226 24-1007 Y613F/A654T/A686S/K694R/N720P/D753Q/N763K/Q786M/R787V/P806D): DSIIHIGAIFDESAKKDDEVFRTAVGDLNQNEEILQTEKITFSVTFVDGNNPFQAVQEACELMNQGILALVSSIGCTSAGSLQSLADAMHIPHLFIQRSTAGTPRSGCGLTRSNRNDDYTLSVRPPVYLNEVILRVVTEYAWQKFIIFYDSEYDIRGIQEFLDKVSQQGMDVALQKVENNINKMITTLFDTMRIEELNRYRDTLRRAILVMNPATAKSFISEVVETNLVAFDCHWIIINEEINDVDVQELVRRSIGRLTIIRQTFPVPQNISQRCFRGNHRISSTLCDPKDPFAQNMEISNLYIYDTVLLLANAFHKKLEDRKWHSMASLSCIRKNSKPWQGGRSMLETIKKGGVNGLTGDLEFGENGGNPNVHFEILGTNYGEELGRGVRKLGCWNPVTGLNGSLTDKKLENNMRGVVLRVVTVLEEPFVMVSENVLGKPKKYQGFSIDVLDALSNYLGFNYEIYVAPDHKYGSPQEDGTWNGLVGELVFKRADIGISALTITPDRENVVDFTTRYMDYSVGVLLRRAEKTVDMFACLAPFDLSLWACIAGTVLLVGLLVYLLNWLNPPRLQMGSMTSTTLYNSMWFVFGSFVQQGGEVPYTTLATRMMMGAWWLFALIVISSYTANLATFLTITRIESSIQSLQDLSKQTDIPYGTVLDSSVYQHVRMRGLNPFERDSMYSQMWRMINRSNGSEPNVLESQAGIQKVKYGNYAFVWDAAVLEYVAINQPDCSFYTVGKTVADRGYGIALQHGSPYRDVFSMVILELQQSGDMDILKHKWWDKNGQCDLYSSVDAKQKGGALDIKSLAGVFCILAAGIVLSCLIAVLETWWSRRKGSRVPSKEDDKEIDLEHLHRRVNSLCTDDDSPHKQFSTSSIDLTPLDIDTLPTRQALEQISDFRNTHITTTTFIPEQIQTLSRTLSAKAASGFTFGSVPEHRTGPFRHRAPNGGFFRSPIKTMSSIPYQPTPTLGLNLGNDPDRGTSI

Concanavalin A: the “increase in activity (GABA-gated current) after treatment” value with S713A AcaGluD, in the test on R721K AcaGluD and in the test on F640Y AcaGluD was above 100 fold in each case. Besides, the “increase in current amplitude after treatment” value with D825P AcaGluD is “fourfold increase”.
For `N=C(N)c1ccc(OCCCCCOc2ccc(C(=N)N)cc2)cc1` [pentamidine], the inhibition at 100 µM against RatGluA2 AMPA receptors was found to be 37 ± 3%; at AcaGluD (100 μM, n = 5, read-out: block of GABA-gated current) it was 68 ± 5%; at AcaGluD (100 µM, n = 7, read-out: block of glutamate-gated current), 78 ± 2%. The “effect on glycine-gated currents” value at RatGluD2^Lc^-9x was “inhibited”.
Turning to `NS(=O)(=O)c1cccc2c1c([N+](=O)[O-])cc1nc(O)c(O)nc12` [NBQX], the “inhibition of constitutive currents” value against RatGluD2^Lc was determined as 9 ± 0.2%. For the same molecule, at AcaGluD (100 μM), the “currents elicited when applied alone” value was “elicited no currents” and the “inhibition of GABA-gated current” value worked out at 61 ± 3%. Besides, on AcaGluD (100 μM, n = 5), the “enhancement of glutamate-gated currents” value amounted to 34 ± 3%. Further, the “effect on oocytes expressing WT RatGluD2” value at WT RatGluD2 is listed as “no effect”.
The corresponding values for `O=[N+]([O-])c1cc2nc(O)c(O)nc2cc1[N+](=O)[O-]` [DNQX] are 11 ± 0.2%, “elicited no currents”, 53 ± 3%, 34 ± 3% and “no effect”.
